According to patent US9624215B2, “Amine derivative or salt thereof” (TOYAMA CHEMICAL CO., LTD., priority 2012, dated 2017):

Experiments:
[1] = test system: TNFα production in LPS-stimulated Raw264.7 cells; test: TNFα production inhibition test; type: cell-based; settings: Mus musculus, test compound 1 μmol/L, LPS 1 μg/mL, 16 hours, ELISA, read-out: Inhibition rate of TNFα production
Protocol: 7×10^4 mouse macrophage-derived cell line Raw264.7 cells were suspended in 100 μL of RPMI1640 medium containing 10% fetal bovine serum, plated in a 96-well plate and incubated overnight. The culture supernatant was removed and the test compound diluted in RPMI1640 medium containing 1% fetal bovine serum (final concentration: 1 μmol/L) was added. One hour after the addition, LPS (B4:0111) (Sigma-Aldrich, L2630) was added to a final concentration of 1 μg/mL. 16 hours after the stimulation, the culture supernatant was collected and the amount of TNFα produced in the culture supernatant was determined using ELISA kit (R&D Systems, MTA00B).
The inhibition rate was calculated from the following formula. Inhibition rate (%)=100−(amount of TNFα produced in the presence of test compound/amount of TNFα produced in the absence of test compound)×100

[2] = test system: normal human neonatal foreskin epidermal keratinocytes (NHEK-F); test: Cell proliferation inhibition test; type: cell-based; settings: Keratinocyte, 72 h, NHEK-F cells, three days incubation, ATPlite or CellTiterGlo, read-out: IC50 (concentration of the compound at which the cell count is reduced by 50%)
How it was run: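 IC50 is the compound level halving cell count relative to untreated wells, with counts from ATP-based luminescence (ATPlite or CellTiterGlo). Readout followed 3 days of compound exposure of overnight-attached neonatal foreskin keratinocytes (2×10^3/well, Humedia-EG2 medium).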

[3] = test system: TPA-induced ear edema and acanthosis in Balb/c mice; test: Mouse TPA-induced ear-swelling model; type: in vivo; settings: topical, 240 h, 1% w/v solution, 20 μL applied to ear once a day from day 0 to day 9, female Balb/c mice, read-out: Inhibition rate of change in ear thickness on day 10
Protocol: Seven-week-old female Balb/c mice (Charles River Laboratories Japan) were used. 20 μL of a 20 ng/mL solution of TPA (Wako Pure Chemical Industries, 162-23591) dissolved in 5% DMSO/acetone was applied to the outer side of the mouse ear on day 0, day 2, day 4, day 7 and day 9 to induce ear edema and acanthosis. The test compound was dissolved in a 5% DMSO/acetone solution (concentration: 1% w/v) and 20 μL of the resulting solution was applied to the outer side of the ear once a day from day 0 to day 9. For the control group, a 5% DMSO/acetone solution was similarly applied. The TPA solution and the test compound solution were mixed and applied on the days for TPA application (day 0, day 2, day 4, day 7 and day 9). The ear thickness was chronologically measured on days 0-4 and days 7-10 using a micrometer (Mitutoyo, MDC-25MJT). The change in ear thickness and the inhibition rate were determined by the following formulas. Change in ear thickness=(ear thickness measured on day 10)−(ear thickness measured on day 0 before TPA application) Inhibition rate (%)=100−(change in ear thickness for test compound group/change in ear thickness for control group)×100

SMILES | inhibition at 1 µM [1] | IC50 [2] | inhibition in vivo at 1 % strength [3]
O=C(O)c1cc(Cl)ccc1Nc1ccc2c(c1)[nH]c(=O)n2Cc1ccccc1 [Example 63, 2-((1-benzyl-2-oxo-2,3-dihydro-1H-benzo[d]imidazol-5-yl)amino)-5-chlorobenzoic acid] | ≥ 50% | – | –
O=C(O)c1cc(C2CC2)cnc1Nc1ccc2c(ccn2Cc2cccc(Cl)c2)c1 [Example 460, 2-((1-(3-chlorobenzyl)-1H-indol-5-yl)amino)-5-cyclopropylnicotinic acid] | – | ≤ 10 nM | ≥ 20%
Cn1ccc2cc(Nc3ncc(C4CC4)cc3C(=O)O)cc(-c3ccccc3F)c21 [Example 464, 5-cyclopropyl-2-((7-(2-fluorophenyl)-1-methyl-1H-indol-5-yl)amino)nicotinic acid] | – | ≤ 10 nM | ≥ 20%
Cn1ccc2cc(Nc3ncc(C4CC4)cc3C(=O)O)cc(-c3ccc(F)cc3)c21 [Example 466, 5-cyclopropyl-2-((7-(4-fluorophenyl)-1-methyl-1H-indol-5-yl)amino)nicotinic acid] | – | ≤ 10 nM | ≥ 20%
COCCCc1cc(Nc2ncc(C3CC3)cc2C(=O)O)cc2ccn(C)c12 [Example 468, 5-cyclopropyl-2-((7-(3-methoxypropyl)-1-methyl-1H-indol-5-yl)amino)nicotinic acid] | – | 10 to 100 nM | ≥ 20%
Cn1ccc2cc(Nc3ncc(C4CC4)cc3C(=O)O)cc(CCC3CC3)c21 [Example 470, 5-cyclopropyl-2-((7-(2-cyclopropylethyl)-1-methyl-1H-indol-5-yl)amino)nicotinic acid] | – | ≤ 10 nM | ≥ 20%
Cn1ccc2cc(Nc3ncc(C4CC4)cc3C(=O)O)cc(-c3ccccc3C#N)c21 [Example 482, 2-((7-(2-cyanophenyl)-1-methyl-1H-indol-5-yl)amino)-5-cyclopropylnicotinic acid] | – | ≤ 10 nM | ≥ 20%
Cn1ccc2cc(Nc3ncc(C4CC4)cc3C(=O)O)cc(-c3ccc(C#N)cc3)c21 [Example 484, 2-((7-(4-cyanophenyl)-1-methyl-1H-indol-5-yl)amino)-5-cyclopropylnicotinic acid] | – | ≤ 10 nM | ≥ 20%
COc1ccccc1-c1cc(Nc2ncc(C3CC3)cc2C(=O)O)cc2ccn(C)c12 [Example 485, 5-cyclopropyl-2-((7-(2-methoxyphenyl)-1-methyl-1H-indol-5-yl)amino)nicotinic acid] | – | ≤ 10 nM | ≥ 20%
O=C(O)c1cc(C2CC2)cnc1Nc1ccc2c(ccn2Cc2cc(F)cc(F)c2)c1 [Example 497, 5-cyclopropyl-2-((1-(3,5-difluorobenzyl)-1H-indol-5-yl)amino)nicotinic acid] | – | ≤ 10 nM | ≥ 20%
O=C(O)c1cc(C2CC2)cnc1Nc1ccc2ccn(CC3CCCCC3)c2c1 [Example 523, 2-((1-(cyclohexylmethyl)-1H-indol-6-yl)amino)-5-cyclopropylnicotinic acid] | – | ≤ 10 nM | ≥ 20%
O=C(O)c1cc(C2CC2)cnc1Nc1ccc2c(cnn2CC2CCCCC2)c1 [Example 543, 2-((1-(cyclohexylmethyl)-1H-indazol-5-yl)amino)-5-cyclopropylnicotinic acid] | – | ≤ 10 nM | ≥ 20%
Cn1cc(-c2ccccc2F)c2cc(Nc3ncc(C4CC4)cc3C(=O)O)ccc21 [Example 557, 5-cyclopropyl-2-((3-(2-fluorophenyl)-1-methyl-1H-indol-5-yl)amino)nicotinic acid] | – | 10 to 100 nM | ≥ 20%
O=C(O)c1cc(C2CC2)cnc1Nc1ccc2c(c1)sc(=O)n2CC1CCCCC1 [Example 565, 2-((3-(cyclohexylmethyl)-2-oxo-2,3-dihydro-1,3-benzothiazol-6-yl)amino)-5-cyclopropylnicotinic acid] | – | ≤ 10 nM | ≥ 20%
Cc1cc2c(ccn2Cc2ccccc2)cc1Nc1ncc(C2CC2)cc1C(=O)O [Example 585, 2-((1-benzyl-6-methyl-1H-indol-5-yl)amino)-5-cyclopropylnicotinic acid] | – | ≤ 10 nM | ≥ 20%
Cn1ccc2cc(Nc3ncc(C4CC4)cc3C(=O)O)cc(-c3ccc(F)cc3F)c21 [Example 588, 5-cyclopropyl-2-((7-(2,4-difluorophenyl)-1-methyl-1H-indol-5-yl)amino)nicotinic acid] | – | ≤ 10 nM | ≥ 20%
Cn1ccc2cc(Nc3ncc(C4CC4)cc3C(=O)O)cc(CCC(C)(C)C)c21 [Example 595, 5-Cyclopropyl-2-((7-(3,3-dimethylbutyl)-1-methyl-1H-indol-5-yl)amino)nicotinic acid] | – | ≤ 10 nM | ≥ 20%
Cn1nccc1-c1cc(Nc2ncc(C3CC3)cc2C(=O)O)cc2ccn(C)c12 [Example 596, 5-cyclopropyl-2-((1-methyl-7-(1-methyl-1H-pyrazol-5-yl)-1H-indol-5-yl)amino)nicotinic acid] | – | ≤ 10 nM | ≥ 20%
CCn1ccc2cc(Nc3ncc(C4CC4)cc3C(=O)O)cc(-c3ccccc3)c21 [Example 597, 5-cyclopropyl-2-((1-ethyl-7-phenyl-1H-indol-5-yl)amino)nicotinic acid] | – | ≤ 10 nM | ≥ 20%
CCn1ccc2cc(Nc3ncc(C4CC4)cc3C(=O)O)cc(CCCOC)c21 [Example 598, 5-cyclopropyl-2-((1-ethyl-7-(3-methoxypropyl)-1H-indol-5-yl)amino)nicotinic acid] | – | 10 to 100 nM | ≥ 20%
O=C(O)c1cc(C2CC2)cnc1Nc1ccc2c(ccn2CCc2ccccc2)c1 [Example 619, 5-cyclopropyl-2-((1-(2-phenylethyl)-1H-indol-5-yl)amino)nicotinic acid] | – | ≤ 10 nM | ≥ 20%
Cc1cc(Nc2ncc(C3CC3)cc2C(=O)O)cc2ccn(Cc3cccc(F)c3)c12 [Example 621, 5-cyclopropyl-2-((1-(3-fluorobenzyl)-7-methyl-1H-indol-5-yl)amino)nicotinic acid] | – | ≤ 10 nM | ≥ 20%
CCC(CC)Cn1ccc2cc(Nc3ncc(C4CC4)cc3C(=O)O)ccc21 [Example 632, 5-cyclopropyl-2-((1-(2-ethylbutyl)-1H-indol-5-yl)amino)nicotinic acid] | – | ≤ 10 nM | ≥ 20%
O=C(O)c1cc(C2CC2)cnc1Nc1ccc2c(ccn2Cc2ccc(F)cc2F)c1 [Example 633, 5-cyclopropyl-2-((1-(2,4-difluorobenzyl)-1H-indol-5-yl)amino)nicotinic acid] | – | ≤ 10 nM | ≥ 20%
O=C(O)c1cc(C2CC2)cnc1Nc1ccc2c(ccn2Cc2ccc(F)c(F)c2)c1 [Example 635, 5-cyclopropyl-2-((1-(3,4-difluorobenzyl)-1H-indol-5-yl)amino)nicotinic acid] | – | ≤ 10 nM | ≥ 20%
CCCCn1ccc2cc(Nc3ncc(C4CC4)cc3C(=O)O)ccc21 [Example 637, 2-((1-butyl-1H-indol-5-yl)amino)-5-cyclopropylnicotinic acid] | – | 10 to 100 nM | ≥ 20%
CCCCCn1ccc2cc(Nc3ncc(C4CC4)cc3C(=O)O)ccc21 [Example 638, 5-cyclopropyl-2-((1-pentyl-1H-indol-5-yl)amino)nicotinic acid] | – | 10 to 100 nM | ≥ 20%
CCCCCCn1ccc2cc(Nc3ncc(C4CC4)cc3C(=O)O)ccc21 [Example 639, 5-cyclopropyl-2-((1-hexyl-1H-indol-5-yl)amino)nicotinic acid] | – | ≤ 10 nM | ≥ 20%
O=C(O)c1cc(C2CC2)cnc1Nc1ccc2c(ccn2Cc2cc(F)ccc2F)c1 [Example 641, 5-cyclopropyl-2-((1-(2,5-difluorobenzyl)-1H-indol-5-yl)amino)nicotinic acid] | – | ≤ 10 nM | ≥ 20%
O=C(O)c1cc(C2CC2)cnc1Nc1ccc2c(ccn2Cc2cccc(F)c2F)c1 [Example 642, 5-cyclopropyl-2-((1-(2,3-difluorobenzyl)-1H-indol-5-yl)amino)nicotinic acid] | – | ≤ 10 nM | ≥ 20%
